From patent publication US20090252672A1, “NASAL DELIVERY OF THERAPEUTIC AGENTS USING TIGHT JUNCTION AGONISTS” (priority 2006, published 2009)
Where two headings read alike, the source gives them in different places.

What was measured:
in vitro = details: human, Caco-2
Description: Caco-2 cells, a human colon adenocarcinoma cell line, were grown as monolayers for 21 days in Dulbecco's Modified Eagle's medium (1X) containing 10% fetal bovine serum, 1% non-essential amino acid solution, 1% penicillin-streptomycin and 2% glutamine at 37° C. in an atmosphere of 5% CO2 and 90% relative humidity. Caco-2 cells from passage numbers of 51 to 52 were seeded on permeable polycarbonate inserts (1 cm^2, 0.4 μm pore size) in 12 Transwell plates at a density of 80,000 cells/cm^2. The inserts were fed with media every other day until they were used for experiments 21 days after the initial seeding. The integrity of the cell monolayers was evaluated by measuring the transepithelial electrical resistance (TEER) values before the study using a Millicell®-ERS meter (Millipore Corp., Bedford, Mass.) with chopstick electrodes. […] The cell monolayers were washed twice with PBS prior to the transport experiments. After the wash, the plates were incubated for 30 min at 37° C., and the integrity of the cell monolayers was evaluated by measurement of TEER. The cell inserts were used in transport experiments when the TEER values reached >300 Ωcm^2.
The insert was moved to a well containing fresh PBS every 10 min for 40 min.
Papp was calculated according to the following equation: […]
The percent enhancement ratio, ER(%), for the Papp was calculated from the formula, […]

[1] = molecular target: T1, protease activated receptor-2 (PAR-2) receptor (Mus musculus, UniProt P55086); details: intracolonic infusion of a 5 μg dose; cited from earlier work
T1 construct: Intracolonic infusion of a 5 μg dose of the PAR-2 agonist, SLIGRL
T1 sequence (P55086 26-399): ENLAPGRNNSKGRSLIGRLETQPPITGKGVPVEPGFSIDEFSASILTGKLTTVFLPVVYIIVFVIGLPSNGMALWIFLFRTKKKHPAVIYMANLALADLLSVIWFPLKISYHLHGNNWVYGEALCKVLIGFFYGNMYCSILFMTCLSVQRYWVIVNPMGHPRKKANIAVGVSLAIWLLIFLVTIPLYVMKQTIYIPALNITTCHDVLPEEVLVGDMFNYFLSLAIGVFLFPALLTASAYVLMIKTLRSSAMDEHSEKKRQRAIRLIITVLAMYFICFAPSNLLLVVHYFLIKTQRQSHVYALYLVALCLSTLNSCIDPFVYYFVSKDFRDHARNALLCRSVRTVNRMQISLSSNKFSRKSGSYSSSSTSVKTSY

[2] = Intra-nasal administration of salmon calcitonin (sCT) with or without AT1002, plasma sCT by LC-MS; format: in vivo, Sprague-Dawley rats; details: for Tmax: 15 mg/kg
Description: Jugular cannulated Sprague-Dawley rats randomly received formulations of salmon calcitonin. The formulations administered intra-nasally to rats were dextrose solution of sCT (15 mg/kg) with or without various doses of AT1002 (2, 5, and 10 mg/kg). Doses were then slowly administered intra-nasally with a volume dose of 400 μl kg rat. Blood samples were drawn via the jugular cannula at each time point, and were deproteinized by the addition of acetonitrile. The concentration of sCT in the plasma was determined by LC-MS.

[3] = Intranasal administration of [3H]-AZT or [3H]-saquinavir with AT1002, uptake into blood plasma
Description: Blood samples (250 μl) were drawn into heparinized syringes at 10 or 15 min into polypropylene tubes, centrifuged (13,000 rpm for 10 min) immediately and plasma was obtained. Scintillation cocktail was added and samples were analyzed for radioactivity by Beckman Coulter LS 6500 multi-purpose Scintillation counter.
In a volume of 20 μl, 120 μCi/kg of [^3H]-AZT was administered to FVB mice of 20-25 g each. Other FVB mice received the same amount of AZT administered in the presence of AT1002(2 mg/kg). Blood samples were taken at 10 or 15 minutes.
[hu 3H]-Saquinavir (120 μCi/kg) was administered in a 20 μl volume intranasally to FVB mice in the absence or presence of AT1002 (5 mg/kg).

[4] = Intranasal administration of [14C] PEG4000 or [14C] inulin with/without AT1002, plasma concentration; format: in vivo, Sprague-Dawley rats; details: inulin with AT1002 10 mg/kg, p<0.05
Text: Male Sprague-Dawley rats cannulated in the jugular vein were randomly assigned to receive radiolabelled paracellular markers, [^14C] PEG4000 or [^14C] inulin, with/without AT1002, for each intranasal study.

Caco-2 cell monolayers = details: ZOT 0.22 to 0.89×10^−10 mol/ml, across Caco-2 cell monolayers; cited from earlier work
[5] = sCT 15 mg/kg intra-nasal with 10 mg/kg of AT1002, p<0.05

For OC[C@@H](O)[C@@H](O)[C@H](O)[C@H](O)CO [Mannitol], the Papp (in vitro) was 0.686 ± 0.057 ×10⁻⁶ cm/s.
For SLIGRL, the “increase in the paracellular permeability of [51Cr]-EDTA” value [1] is given as 2 fold.
Work on CC(C)C[C@H](NC(=O)[C@H](CCCCN)NC(=O)CNC(=O)[C@H](CC(C)C)NC(=O)[C@@H](NC(=O)[C@@H]1CSSC[C@H](N)C(=O)N[C@@H](CO)C(=O)N[C@@H](CC(N)=O)C(=O)N[C@@H](CC(C)C)C(=O)N[C@@H](CO)C(=O)N[C@@H]([C@@H](C)O)C(=O)N1)C(C)C)C(=O)N[C@@H](CO)C(=O)N[C@@H](CCC(N)=O)C(=O)N[C@@H](CCC(=O)O)C(=O)N[C@@H](CC(C)C)C(=O)N[C@@H](Cc1c[nH]cn1)C(=O)N[C@@H](CCCCN)C(=O)N[C@@H](CC(C)C)C(=O)N[C@@H](CCC(N)=O)C(=O)N[C@H](C(=O)N[C@@H](Cc1ccc(O)cc1)C(=O)N1CCC[C@H]1C(=O)N[C@@H](CCCNC(=N)N)C(=O)N[C@H](C(=O)N[C@@H](CC(N)=O)C(=O)N[C@H](C(=O)NCC(=O)N[C@@H](CO)C(=O)NCC(=O)N[C@H](C(=O)N1CCC[C@H]1C(N)=O)[C@@H](C)O)[C@@H](C)O)[C@@H](C)O)[C@@H](C)O [sCT only, Salmon calcitonin] yielded a Tmax ([2]; Sprague-Dawley, rat, plasma, inhaled or intranasal, sCT 15 mg/kg intra-nasal alone (control), mean ± SEM, read-out: sCT Tmax (converted)) of 32.5 min, a Tmax ([2]; Sprague-Dawley, rat, plasma, inhaled or intranasal, sCT 15 mg/kg intra-nasal, sCT only (FIG. 7), read-out: Tmax of average plasma concentration profile of sCT (converted)) of 30 min and a Cmax ([2]; Sprague-Dawley, rat, plasma, inhaled or intranasal, sCT 15 mg/kg intra-nasal alone (control), mean ± SEM) of 1230 ± 250 ng/mL. For the same molecule, the AUC(0-t) ([2]; Sprague-Dawley, rat, plasma, inhaled or intranasal, sCT 15 mg/kg intra-nasal alone (control), mean ± SEM, n=3-5, read-out: sCT AUC0-90 min (converted)) was 997 ng·h/mL.
With H-FCIGRL-OH [AT1002, H-FCIGRL-OH] the “increase of plasma concentration of sCT vs sCT control” value ([2]; at 20 min, sCT 15 mg/kg intra-nasal with 10 mg/kg of AT1002, p<0.05) was 1.99 fold, the “increase in sCT AUC0-90min to sCT control” value [2, 5] was 1.66 fold and the “increase in sCT Cmax to sCT control” value [2, 5] was 1.67 fold. For the same molecule, the “increase of AZT levels in plasma” value ([3]; [3H]-AZT 120 μCi/kg intranasal, AT1002 2 mg/kg co-administered, blood at 10 or 15 min, vs AZT alone, p<0.05) was “about 33%”, the “increase of saquinavir levels in plasma” value ([3]; [3H]-saquinavir 120 μCi/kg intranasal, in presence of AT1002 5 mg/kg vs absence) was “about 51%” and the “inulin AUC0-360min, increase over control” value [4] was 292%. For the same molecule, the “inulin Cmax, increase over control” value [4] was 315%.
For “ZOT: 44.8 kDa protein (399 amino acids) of Vibrio cholerae that reversibly opens tight junctions”, the “enhanced transport of agents of varying molecular weights or low bioavailability” value (Caco-2 cell monolayers) is given as “up to 30 fold”.
